ChEMBL document CHEMBL1158858, “(2,4-cis and trans)-gigantecinone and 4-deoxygigantecin, bioactive nonadjacent bis-tetrahydrofuran annonaceous acetogenins, from Goniothalamus giganteus” (J Nat Prod, 1997)
≈ marks a conversion by molar mass, not a printed value.

What was measured:
MCF7 = experiment: Cytotoxicity against human MCF7 cells after 7 days by MTT assay; type: functional; conditions: MCF7, 168 h, read-out: ED50 (the source's name)
Aedes aegypti = experiment: Insecticidal activity against yellow fever mosquito larvae by microtiter plate assay; type: functional
MIA PaCa-2 = experiment: Cytotoxicity against human MIAPaCa2 cells after 7 days by MTT assay; type: functional; conditions: MIA PaCa-2, 168 h, read-out: ED50 (the source's name)
HT-29 = experiment: Cytotoxicity against human HT29 cells after 7 days by MTT assay; type: functional; conditions: HT-29, 168 h, read-out: ED50 (the source's name)
A498 = experiment: Cytotoxicity against human A498 cells after 7 days by MTT assay; type: functional; conditions: A498, 168 h, read-out: ED50 (the source's name)
PC-3 = experiment: Cytotoxicity against human PC3 cells after 7 days by MTT assay; type: functional; conditions: PC-3, 168 h, read-out: ED50 (the source's name)
A549 = experiment: Cytotoxicity against human A549 cells after 7 days by MTT assay; type: functional; conditions: for EC50: Homo sapiens, A549, 168 h, read-out: ED50 (the source's name)
Artemia = experiment: (§1) Toxicity to brine shrimp; type: organism-based; conditions: in vivo
[1] = as §1; type: organism-based; conditions: artemia, in vivo

SMILES | EC50 (MCF7) | LC50 (Aedes aegypti) | EC50 (MIA PaCa-2) | EC50 (HT-29) | EC50 (A498) | EC50 (PC-3) | EC50 (A549) | LC50 (Artemia) | ED50 (A549) | LC50 [1]
CCCCCCCCCCCC[C@@H](O)[C@H]1CC[C@H]([C@H](O)CC[C@H](O)[C@@H]2CC[C@@H](CCCCCCCC3=C[C@H](C)OC3=O)O2)O1 | 1 µg/mL (≈ 1.61 µM) | 0.68 µg/mL (≈ 1.09 µM) | 0.393 µg/mL (≈ 0.631 µM) | 0.143 µg/mL (≈ 0.23 µM) | 0.328 µg/mL (≈ 0.527 µM) | 0.15 µg/mL (≈ 0.241 µM) | 0.131 µg/mL (≈ 0.21 µM) | 0.04 ppm | – | –
CCCCCCCCCCCC[C@@H](O)[C@H]1CC[C@H]([C@H]2CC[C@@H]([C@@H]3CC[C@@H](CCCCCCCC4=C[C@H](C)OC4=O)O3)OCO2)O1 | 0.495 µg/mL (≈ 0.78 µM) | – | 0.217 µg/mL (≈ 0.342 µM) | 0.183 µg/mL (≈ 0.288 µM) | 0.162 µg/mL (≈ 0.255 µM) | 0.132 µg/mL (≈ 0.208 µM) | 0.0382 µg/mL (≈ 0.0602 µM) | – | – | –
CCCCCCCCCCCC[C@@H](O)[C@H]1CC[C@H]([C@H](O)CC[C@H](O)[C@@H]2CC[C@@H](CCCCC[C@@H]3CC(CC(C)=O)C(=O)O3)O2)O1 (some centres undefined) | > 1 µg/mL | 0.27 µg/mL (≈ 0.423 µM) | > 1 µg/mL | > 1 µg/mL | 0.212 µg/mL (≈ 0.332 µM) | 0.00108 µg/mL (≈ 0.00169 µM) | 0.214 µg/mL (≈ 0.335 µM) | 3.27 ppm | – | –
CCCCCCCCCCCC[C@@H](O)[C@H]1CC[C@H]([C@H]2CC[C@@H]([C@@H]3CC[C@@H](CCCCC[C@@H]4CC(CC(C)=O)C(=O)O4)O3)OCO2)O1 (mixture of isomers) | > 1 µg/mL | – | > 1 µg/mL | > 1 µg/mL | 0.271 µg/mL | 0.00306 µg/mL | 0.252 µg/mL | – | – | –
COc1cccc2c1C(=O)c1c(O)c3c(c(O)c1C2=O)C[C@@](O)(C(=O)CO)C[C@@H]3O[C@H]1C[C@H](N)[C@H](O)[C@H](C)O1 [DOXORUBICIN] | 0.369 µg/mL (≈ 0.679 µM) | – | 0.00142 µg/mL (≈ 0.00261 µM) | 0.725 µg/mL (≈ 1.33 µM) | 0.113 µg/mL (≈ 0.208 µM) | 0.0146 µg/mL (≈ 0.0269 µM) | 0.00393 µg/mL (≈ 0.00723 µM) | – | – | –
CCCCCCCCCCCC[C@@H](O)[C@H]1CC[C@H]([C@H](O)CC[C@H](O)[C@@H]2CC[C@@H](CCCCC[C@@H](O)CC3=C[C@H](C)OC3=O)O2)O1 [GIGANTECIN] | 0.411 µg/mL (≈ 0.643 µM) | – | – | 0.268 µg/mL (≈ 0.419 µM) | – | – | – | – | 2.19 ×10⁻⁷ ug/ml | 222 µg/mL (≈ 347 µM)
C=C(C)[C@H]1Cc2c(ccc3c2O[C@@H]2COc4cc(OC)c(OC)cc4[C@@H]2C3=O)O1 [ROTENONE] | – | 0.75 µg/mL (≈ 1.9 µM) | – | – | – | – | – | – | – | –
